Consider one compound from patent US10342804B2, “Steroid compound for use in the treatment of hepatic encephalopathy” (Umecrine Cognition AB, priority 2014, dated 2019).

One data set has as its system hyperammonemic rats. Kind of data set: Motor coordination in the beam walking test, chronic hyperammonemia model (Example 4). To be noted: 20 mg/kg s.c. once daily, 3rd-4th week of treatment. In kind it is in vivo, rat. An excerpt: In this study an animal model of chronic hyperammonemia was used that reproduces many of the cognitive and motor alterations present in hepatic encephalopathy. Rats were fed with ammonia in their food and after two weeks with ammonia enriched food they developed symptoms of hepatic encephalopathy. The beam walking test was made during the 3rd and 4th week of 3α-ethynyl-3β-hydroxyandrostan-17-one oxime treatment while the Morris Water maze test was made during 4th-5th week of 3α-ethynyl-3β-hydroxyandrostan-17-one oxime treatment and the Radial maze test was made during 6th-7th week of 3α-ethynyl-3β-hydroxyandrostan-17-one oxime treatment.
The study was divided into two series with animals (male Wistar rats), each series included the following groups; Controls treated with vehicle (CV, n=8 per series), Controls treated with 3α-ethynyl-3β-hydroxyandrostan-17-one oxime (C+GAM, n=8 per series), hyperammonemic rats treated with vehicle (HAV, n=8 per series), hyperammonemic rats treated with 3α-ethynyl-3β-hydroxyandrostan-17-one oxime (HA+GAM, n=8 per series). […]
In the beam-walking test rats are trained to traverse an elevated, narrow beam to reach an enclosed escape platform. […] The parameters of motor coordination measured are: footslips (or foot faults) and latency to traverse the beam. […] The number of times the left or right hind paw slip off the beam was recorded for each trial.

The nature of data set [1]: Exposure in plasma and brain tissue, PCS rats (Example 13). Type of data set: in vivo, rat. To be noted: for Total concentration in plasma: at the time for behavioral testing. Here is the method:
Male Wistar rats (220-240 g) were anesthetized with isoflurane, and an end-to side porta-caval anastomosis was performed as described by Lee and Fisher (Surgery, 1961, 50, 668-672).
Rats that were subjected to the porta-caval anastomosis procedure are herein referred to as “PCS rats”.
3α-ethynyl-3β-hydroxyandrostan-17-one oxime in sesame oil was administered by subcutaneous injections in the back of the rats, once daily. Two different sets of experiments were performed in hyperammonemic rats. In the first set four groups of rats were used: 1) control rats injected with vehicle; 2) hyperammonemic rats injected with vehicle; 3) control rats injected with 20 mg/Kg of 3α-ethynyl-3β-hydroxyandrostan-17-one oxime and 4) hyperammonemic rats injected with 20 mg/Kg of 3α-ethynyl-3β-hydroxyandrostan-17-one oxime.
For the experiments using PCS rats, the following groups of rats were used: 1) Sham rats injected with vehicle; 2) PCS rats injected with vehicle; 3-4) PCS rats injected with 0.7 or 2.5 mg/Kg of 3α-ethynyl-3β-hydroxyandrostan-17-one oxime. The number of rats used in each experiment is either shown in the corresponding Figure or given in the description of the corresponding Figure.
At the end of the treatment period plasma was collected from the tail vein, and after sacrifice by decapitation brains were collected and immediately frozen on dry ice. For analysis of 3α-ethynyl-3β-hydroxyandrostan-17-one oxime exposure, brain tissue was homogenized with a 1:4 ratio of tissue: PBS (pH 7.4) and then extracted with a 2-fold volume of methanol:acetonitrile (1:1), while plasma was protein-precipitated with a 3-fold volume with acetonitrile. Analyses were performed by Waters ACQUITY UPLC+Waters XEVO-TQS triple quadrupole mass spectrometer (Admescope Oy, Oulu, Finland). For calculations of the amount of free 3α-ethynyl-3β-hydroxyandrostan-17-one oxime exposure in the brain the fraction unbound (Fb) in brain homogenates were determined by dialysis, Fub in HA=[…] and Fub in PCS=1.43% (Admescope Oy, Oulu, Finland).

Regarding `C#C[C@]1(O)CC[C@@]2(C)C(CC[C@@H]3[C@@H]2CC[C@]2(C)/C(=N\O)CC[C@@H]32)C1` (stereo partly drawn) [3α-ethynyl-3β-hydroxyandrostan-17-one oxime], the “Motor in-coordination in the beam-walking test (slips)” value in the data set on hyperammonemic rats is on record as “completely reversed motor in-coordination”. Moreover, in data set [1] (0.7 mg/kg/day s.c.), the “Unbound concentration in the brain” value worked out at 6.18 ± 0.97 nmol/kg and the “Total concentration in plasma” value was found to be 0.48 ± 0.09 µM. In data set [1] (2.5 mg/kg/day s.c.), the “Unbound concentration in the brain” value turned out to be 17 ± 2 nmol/kg and the “Total concentration in plasma” value stood at 1.64 ± 0.30 µM.
